Assay results from US8263606B2 (Xenon Pharmaceuticals Inc., priority 2008, dated 2012).
pIC50, pKi: −log10 of the molar value.

Key:
[1] = system: sodium channel; assay: Guanidine influx assay (14C-guanidine radiotracer flux, in vitro); type: cell-based, human or rat; conditions: guanidine influx assay using a known cell line that expresses a sodium channel; activity level class
How it was run: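 Sodium channel block is measured as reduced 14C-guanidine uptake in cells stably expressing human or rat channels, stimulated with aconitine. Potency is given as IC50 from a four-parameter curve.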

[2] = target: CYP3A4 (Homo sapiens, UniProt P08684); assay: Cytochrome P450 (CYP450) Inhibition Assay, CYP3A4 (Vivid fluorescence, BOMCC substrate); conditions: human, P450 Baculosomes (recombinant CYP3A4), probe BOMCC (Vivid substrate)
Sequence of CYP3A4 (P08684 whole entry): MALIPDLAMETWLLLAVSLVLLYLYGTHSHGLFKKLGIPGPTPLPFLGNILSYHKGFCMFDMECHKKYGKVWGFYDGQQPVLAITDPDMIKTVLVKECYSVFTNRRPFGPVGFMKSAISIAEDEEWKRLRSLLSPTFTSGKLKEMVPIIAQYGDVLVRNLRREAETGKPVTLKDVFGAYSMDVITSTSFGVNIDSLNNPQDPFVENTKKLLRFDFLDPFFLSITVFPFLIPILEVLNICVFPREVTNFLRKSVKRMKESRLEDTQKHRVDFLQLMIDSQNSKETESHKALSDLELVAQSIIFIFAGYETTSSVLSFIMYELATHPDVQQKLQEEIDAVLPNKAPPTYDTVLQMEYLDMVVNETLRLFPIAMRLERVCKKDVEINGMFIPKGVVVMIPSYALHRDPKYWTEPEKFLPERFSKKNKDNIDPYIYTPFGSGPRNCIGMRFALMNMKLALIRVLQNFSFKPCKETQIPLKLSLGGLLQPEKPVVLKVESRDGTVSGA

[3] = system: inactivated state of the channel of interest (sodium channel); assay: Electrophysiological assay (whole cell voltage clamp, in vitro); type: cell-based; conditions: affinity for the inactivated state of the channel of interest
How it was run: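 Whole-cell voltage clamp at ambient temperature on stably transfected cells; CsF-based pipette, pH 7.4 NaCl bath. Current blockade measured at holding potentials of −120 mV (resting, Kr) and one giving 10% availability (inactivated, Ki), held ≥10 s to equilibrate; apparent Kd calculated from fractional block.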

pIC50 [1] | melting point | inhibition at 10 µM [2] | SMILES | pKi [3]
5.00 to 6.00 | 154 to 156 °C | < 50% | O=C1N(Cc2ccccn2)c2ccccc2[C@@]12COc1cc3c(cc12)CCO3 [Example 5.4, (3R)-1-(pyridin-2-ylmethyl)-5,6-dihydrospiro[benzo[1,2-b:5,4-b′]difuran-3,3′-indol]-2′(1′H)-one] | < 6.52
5.00 to 6.00 | 68 to 70 °C | > 50% | O=C1N(Cc2ccc(C(F)(F)F)o2)c2ccccc2[C@@]12COc1cc3c(cc12)CCO3 [Example 5.5, (3R)-1′-{[5-(trifluoromethyl)furan-2-yl]methyl}-5,6-dihydrospiro[benzo[1,2-b:5,4-b′]difuran-3,3′-indol]-2′(1′H)-one] | < 6.52
7.00 to 9.00 | 84 to 85 °C | < 50% | O=C1N(Cc2ccccn2)c2ccccc2[C@]12COc1cc3c(cc12)CCO3 [Example 5.6, (3S)-1′-(pyridin-2-ylmethyl)-5,6-dihydrospiro[benzo[1,2-b:5,4-b′]difuran-3,3′-indol]-2′(1′H)-one] | < 6.52
7.00 to 9.00 | 64 to 65 °C | > 50% | O=C1N(Cc2ccc(C(F)(F)F)o2)c2ccccc2[C@]12COc1cc3c(cc12)CCO3 [Example 5.7, (3S)-1′-{[5-(trifluoromethyl)furan-2-yl]methyl}-5,6-dihydrospiro[benzo[1,2-b:5,4-b′]difuran-3,3′-indol]-2′(1′H)-one] | > 6.52
7.00 to 9.00 | 102 to 104 °C | < 50% | COc1ncc(CN2C(=O)[C@@]3(COc4cc5c(cc43)OCCO5)c3ccccc32)cn1 [Example 5.17, (8S)-1′-[(2-methoxypyrimidin-5-yl)methyl]-2,3-dihydrospiro[furo[2,3-g][1,4]benzodioxine-8,3′-indol]-2′(1′H)-one] | > 6.52
7.00 to 9.00 | 210 to 212 °C | < 50% | O=C1N(Cc2ncccn2)c2ccccc2[C@]12COc1cc3c(cc12)OCCO3 [Example 5.18, (8S)-1′-(pyrimidin-2-ylmethyl)-2,3-dihydrospiro[furo[2,3-g][1,4]benzodioxine-8,3′-indol]-2′(1′H)-one] | > 6.52
7.00 to 9.00 | 129 to 130 °C | > 50% | CCCCCN1C(=O)C2(COc3cc4c(cc32)OCCO4)c2ccccc21 (stereo not shown) [Example 8.4, 1′-pentyl-2,3-dihydrospiro[furo[2,3-g][1,4]benzodioxine-8,3′-indol]-2′(1′H)-one] | > 6.52
5.00 to 6.00 | 207 to 209 °C | < 50% | O=C1N(C[C@H]2COCCO2)c2ccccc2[C@@]12COc1cc3c(cc12)OCCO3 [Example 8.6, (8R)-1′-[(2S)-1,4-dioxan-2-ylmethyl]-2,3-dihydrospiro[furo[2,3-g][1,4]benzodioxine-8,3′-indol]-2′(1′H)-one] | < 6.52
7.00 to 9.00 | 207 to 210 °C | < 50% | O=C1N(C[C@@H]2COCCO2)c2ccccc2[C@]12COc1cc3c(cc12)OCCO3 [Example 8.8, (8S)-1′-[(2R)-1,4-dioxan-2-ylmethyl]-2,3-dihydrospiro[furo[2,3-g][1,4]benzodioxine-8,3′-indol]-2′(1′H)-one] | > 6.52
6.00 to 7.00 | 144 to 147 °C | < 50% | O=C1N(C[C@@H]2COCCO2)c2ccccc2C12COc1cc3c(cc12)OCCCO3 (stereo partly drawn) [Example 8.12, 1′-[(2R)-1,4-dioxan-2-ylmethyl]-3,4-dihydro-2H-spiro[furo[2,3-h][1,5]benzodioxepine-9,3′-indol]-2′(1′H)-one] | < 6.52
